# Results taken from the supplement of paper PMC10307832.
# Legend:
# Assay in all cases: relative viability (nuclei count vs DMSO), 5 days (fraction); higher = more cells survive
# [1] = compound: CCC1=CN=CN=C1N2CCN(CC2)CC3=NC4=C(N3)C=C(C=C4)C(F)(F)F + NC(=O)Nc1cc(-c2cccc(F)c2)sc1C(=O)N[C@H]1CCCNC1 [AZD7762] (partner 0.2 µM)
# Outline: (§1)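 Cells from lung cancer lines were seeded into 1536-well plates and, one day later, dosed by pin tool. Treatments were either a single drug or a fixed dose of an anchor drug with five library-drug doses (not always all listed) in √10 steps. After 5 days, nuclei were stained in a one-step fixation (final 0.05% Triton X-100, 1% formaldehyde, 1 ug/ml Hoechst) and counted on 4× images, and relative viability is the treated-to-vehicle nuclei ratio, as the median of duplicate plates.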
# [2] = compound: CCC1=CN=CN=C1N2CCN(CC2)CC3=NC4=C(N3)C=C(C=C4)C(F)(F)F + O=C(CCCCCCC(=O)Nc1ccccc1)NO [Vorinostat] (partner 1 µM)
# Outline: as §1
# [3] = compound: CCn1c(-c2nonc2N)nc2cnc(Oc3cccc(NC(=O)c4ccc(OCCN5CCOCC5)cc4)c3)cc21 + Cc1nc(NC(=O)N2CCC[C@H]2C(N)=O)sc1-c1ccnc(C(C)(C)C(F)(F)F)c1 [Alpelisib] (partner 2 µM)
# Outline: as §1
# [4] = compound: CCn1c(-c2nonc2N)nc2cnc(Oc3cccc(NC(=O)c4ccc(OCCN5CCOCC5)cc4)c3)cc21 + CC(C)C[C@H](NC(=O)[C@H](Cc1ccccc1)NC(=O)c1cnccn1)B(O)O [Bortezomib] (partner 0.002 µM)
# Outline: as §1
Cell Line,relative viability ([1]; first compound 0.04 µM),relative viability ([1]; first compound 0.1265 µM),relative viability ([1]; first compound 0.4 µM),relative viability ([1]; first compound 1.265 µM),relative viability ([1]; first compound 4 µM),relative viability ([2]; first compound 0.04 µM),relative viability ([2]; first compound 0.1265 µM),relative viability ([2]; first compound 0.4 µM),relative viability ([2]; first compound 1.265 µM),relative viability ([2]; first compound 4 µM),relative viability ([3]; first compound 0.04 µM),relative viability ([3]; first compound 0.1265 µM),relative viability ([3]; first compound 0.4 µM),relative viability ([3]; first compound 1.265 µM),relative viability ([3]; first compound 4 µM),relative viability ([4]; first compound 0.04 µM),relative viability ([4]; first compound 0.1265 µM),relative viability ([4]; first compound 0.4 µM),relative viability ([4]; first compound 1.265 µM),relative viability ([4]; first compound 4 µM)
HCC-366,0.33,0.256,0.219,0.226,0.302,0.365,0.3,0.296,0.332,0.417,0.462,0.429,0.21,0.0494,0.031,1.32,1.11,0.151,0.0688,0.0348
IA-LM,,,,,,,0.979,0.937,0.932,0.962,1.17,0.929,0.871,0.825,0.687,1.31,0.972,0.99,0.795,0.811
LK-2,0.414,0.476,0.353,0.209,0.466,0.245,0.235,0.356,0.223,0.244,1.39,1.2,1.1,0.282,0.512,,,,,
NCI-H358,0.614,0.436,0.453,0.51,0.485,0.695,0.622,0.661,0.586,0.686,1.01,1.04,0.792,0.65,0.42,,,,,
NCI-H520,,,,,,0.854,0.684,0.663,0.576,0.591,1.18,0.982,0.897,0.788,0.522,0.749,0.614,0.537,0.349,0.239
NCI-H522,0.87,0.869,0.707,0.748,0.901,0.951,1.02,0.75,0.771,0.973,,,,,,,,,,
NCI-H661,,,,,,0.78,0.794,0.757,0.704,0.663,0.823,0.724,0.435,0.287,0.451,0.896,0.865,0.815,0.608,0.616
NCI-H1299,,,,,,,,,,,0.991,0.891,0.836,0.912,0.861,1.06,0.975,0.929,0.825,0.734
NCI-H1395,0.398,0.349,0.37,,0.474,0.575,0.574,0.7,,0.748,1.26,0.877,0.948,0.493,0.634,,,,,
NCI-H1563,,,,,,,,,,,0.96,0.878,0.825,0.766,0.712,0.793,0.821,0.669,0.753,0.603
NCI-H1648,0.666,,,0.655,0.683,0.684,,,0.362,0.403,,,,,,,,,,
NCI-H1650,,,,,,0.635,0.73,0.503,0.359,0.636,,,,,,0.258,0.21,0.196,0.209,0.211
NCI-H1703,,0.148,0.125,,0.126,,,,,,0.385,0.428,0.254,0.209,0.164,0.369,0.283,0.178,0.187,0.178
NCI-H1792,0.666,0.66,0.527,,0.685,,,,,,0.84,0.773,,0.551,0.629,1.09,1,,0.631,0.817
NCI-H1793,0.548,0.407,0.392,0.334,0.347,0.568,0.668,0.531,0.536,0.647,0.639,0.671,0.662,0.652,0.599,,,,,
NCI-H1944,0.757,0.512,0.465,0.379,0.607,0.664,0.441,0.663,0.384,0.524,0.934,0.809,,0.781,0.789,,,,,
NCI-H2009,,,,,,0.775,0.698,0.753,0.61,0.639,1.01,0.987,0.857,0.745,0.5,1.06,0.875,0.647,0.322,0.318
NCI-H2023,,,,,,0.561,0.575,0.649,0.556,0.776,0.715,0.666,0.66,0.549,0.425,1.25,0.918,0.621,0.504,0.394
NCI-H2170,0.899,0.832,0.83,0.724,0.941,0.787,0.731,0.778,0.724,0.815,0.748,0.747,0.912,0.719,0.817,,,,,
NCI-H2228,,,,,,,0.63,0.587,0.693,0.496,1.14,0.998,0.776,0.732,0.644,1.12,0.897,0.921,0.591,0.839
NCI-H2342,0.441,0.389,0.467,0.397,0.419,0.629,0.736,0.744,0.531,0.565,,,,,,,,,,
SK-LU-1,,,,,,0.675,0.74,0.76,0.777,0.68,1.17,0.821,0.599,0.42,0.349,1.5,0.921,0.608,,0.504
SK-MES-1,,,,,,1.11,1.04,1.01,1.03,1.08,0.924,0.735,0.656,,0.684,,,,,
SW 900,0.552,0.571,0.48,,0.702,0.454,0.45,0.403,,0.422,,,,,,,,,,
SW 1573,,,,,,0.623,1.08,0.756,0.575,0.734,0.968,0.823,0.48,0.397,0.276,0.984,1.04,0.871,0.575,0.41
